According to patent US11903386B2, “Strigolactone analogs and their usage in plant control” (King Abdullah University of Science and Technology, priority 2016, dated 2024):
“Also recorded” adds a separate entry of the source.

Assays:
[1] = target: T1, ShHTL7 (Striga hermonthica, UniProt A0A0M3PNA2); assay: In vitro hydrolysis assay with ShHTL7 (HPLC); assay type: biochemical; conditions: 10 μM substrate, 37° C.
T1 sequence (A0A0M3PNA2 1-271): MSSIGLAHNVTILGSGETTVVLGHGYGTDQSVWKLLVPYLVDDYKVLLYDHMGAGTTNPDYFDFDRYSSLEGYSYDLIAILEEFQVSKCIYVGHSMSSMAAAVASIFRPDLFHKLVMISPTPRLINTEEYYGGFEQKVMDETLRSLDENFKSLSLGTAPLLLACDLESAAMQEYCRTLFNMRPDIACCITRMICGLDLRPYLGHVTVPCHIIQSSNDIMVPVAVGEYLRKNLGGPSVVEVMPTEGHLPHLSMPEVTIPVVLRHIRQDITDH

[2] = system: S. hermonthica seeds; assay: Striga hermonthica seed germination bioassay; assay type: in vivo; conditions: for Relative activity in inducing S. hermonthica seed germination: comparison between compounds
Method: Parasitic weed seeds (S. hermonthica and P. ramosa) germination activity was recorded as described previously (Jamil et al., 2012). Six pre-conditioned seed discs were placed in a 90 mm petri-dish containing a filter paper ring wetted with 0.9 ml sterile MilliQ water. […] GR24 solutions with equal concentrations and sterile MilliQ water were included as a positive and negative control, respectively. After application, seeds were incubated at 30° C./25° C. in the dark for two days. Germination (seeds with radical emerging through seed coat) was scored under a binocular microscope, and germination rate (%) was calculated. Statistical analyses were carried out using statistical software package R (version 3.2.2). Dose-response curves and Half Maximum Effective Concentrations (EC50) were calculated to determine optimum amount of MPs. Synthetic strigolactone analog GR24 was used as reference to estimate efficacy of selected compounds. EC50 and estimated response were calculated using drc package (https://cran.r390 project.org/web/packages/drc/) with a Four Parameter Logistic Curve (Dose Response Curve) (Ritz and Streibig, 2005).

[3] = system: Arabidopsis seedlings; assay: Arabidopsis lateral root density and primary root length; assay type: in vivo; conditions: 1.0 μM, 8 days old seedlings
Method: Sterilized Arabidopsis seeds were sown on half strength MS (with 0.5% sucrose+1% agar, 0.5 g L^−1 MES, pH 5.7) plates supplemented with GR24 or MPs (at 1.0 μM). Plates were stored at 4° C. in darkness for 3 days and then vertically grown at 22° C. in Percival incubator under long day condition (16 h at 22° C./8 h at 16° C. day/night, 60% relative humidity, 4000-5000 LUX white light) for 8 days. For determining the effect on lateral root density and primary root length, at least 30 seedlings were measured using publically available ImageJ software (http://rsbweb.nih.gov/ij/) after scanning roots.

[4] = system: rice d10 mutant; assay: Rice micro tillering bioassay, d10 mutant; assay type: in vivo; conditions: comparison between compounds
Method: Rice seeds (WT, d3, d10) were surface-sterilized by washing with 70% ethanol for 1 min and then with 2.5% sodium hypochlorite for 15 min. Seeds were then rinsed thoroughly with sterile MilliQ water and incubated in water for 2 days at 30° C. in the dark. Pre-germinated seeds were transferred to filter papers containing ½ strength MS medium in 90 mm petri dishes and incubated at 30° C. under fluorescent white light (130-180 μM m^−2 s^−1) for one week. Seven day-old seedlings were transferred to 50 ml falcon tubes (one seedling per tube) containing modified half-strength Hoagland nutrient solution and grown in greenhouse. Plants were treated with MPs at 2.5 μM-2.5×10-7 μM, using GR24 as positive control. The compounds were applied six times, twice a week. Number of tillers per plant, plant height and fresh biomass were measured at final harvest.
Statistical analyses were carried out using statistical software package R (version 3.2.2). Dose-response curves and Half Maximum Effective Concentrations (EC50) were calculated to determine optimum amount of MPs. Synthetic strigolactone analog GR24 was used as reference to estimate efficacy of selected compounds. EC50 and estimated response were calculated using drc package (https://cran.r390 project.org/web/packages/drc/) with a Four Parameter Logistic Curve (Dose Response Curve) (Ritz and Streibig, 2005).

[5] = Chemical stability of MPs in aqueous solution, monitored by HPLC; assay type: physicochemical; conditions: aqueous solution pH 6.8, 21° C., monitored at 24 h intervals up to 3 weeks
Method: Aqueous solutions of MPs (50 μg ml-1; pH 6.8) were incubated at 21° C. in amber HPLC vials. For sample preparation, 50 μl of an acetone solution (1 mg ml-1) was diluted to the final concentration with methanol (425 μl), water (500 μl) and 25 μl of 1-Indanol (1.0 mg ml-1 solution in acetone) as internal standard. […] The column was operated at 35° C. with a flow rate of 0.25 ml per min. Compounds eluted from the column were detected with a Diode array detector. Relative quantity of remaining (non-degraded) product was determined by comparison to the internal standard.

Structure (SMILES)	Hydrolysis rate by ShHTL7 [1]	Relative activity in inducing S. hermonthica seed germination [2]	Increase of primary root length [3]	Relative activity in inhibiting rice tillering (d10) [4]	Stability in comparison to GR24 [5]	Striga germination activity (EC50) relative to GR24, times weaker ([2]; in vivo)	Reduction of number of lateral roots / lateral root density [3]
COC(=O)/C(=C/OC1C=C(C)C(=O)O1)c1ccccc1 (racemic) [MP3, (E)-methyl 3-(4-methyl-5-oxo-2,5-dihydrofuran-2-yloxy)-2-phenylacrylate]	finally MP3; also recorded: higher hydrolysis activities with MP3 and MP7 than with GR24	less active than MP1	weaker activity than GR24 and MP8	the most active compound; also recorded: most pronounced inhibitory effect on tillering	more stable than GR24	–	–
COC(=O)/C(=C/OC1C=C(C)C(=O)O1)c1ccc([N+](=O)[O-])cc1 (racemic) [MP1, (E)-methyl 3-(4-methyl-5-oxo-2,5-dihydrofuran-2-yloxy)-2-(4-nitrophenyl)acrylate]	highest hydrolysis rates	the most potent compound	the most active compound; also recorded: more efficient than GR24	weaker than GR24	slightly less stable than GR24	around 17 times	activity higher than that of GR24; also recorded: more efficient than GR24
COC(=O)/C(=C/OC1C=C(C)C(=O)O1)c1ccc(Cl)cc1 (stereo not drawn) [MP7]	higher hydrolysis activities with MP3 and MP7 than with GR24	highest germination activity	more efficient than GR24	more active than GR24	more stable than GR24	–	slightly more active than GR24; also recorded: more efficient than GR24
